The values below come from patent US20050063940A1, “Bioadhesive agent” (priority 2002, published 2005).

The nature of the series: Cross-over study of drug A blood levels with 1% Softigen or 1% Labrasol formulation. Further details: species or system rabbits. The note with it: rabbit, in vivo. The protocol: In a cross-over study, 4 rabbits received drug A in a formulation containing 1% Softigen® (Sasol GmbH, Germany) (n=4) and 1% Labrasol® (Gattefosse, France) (n=4) and were sampled for blood samples after 0, 2, 5, 10, 15, 30, 45 and 60 min.

Consider “macrogol-6-glycerol-caprylocaprate [PEG6-CCG]”, for which the tmax is 6 min.
